# Where two headings read alike, the source gives them in different places.
# Molecular target: T1, human recombinant COX2 (hCOX2) (UniProt P35354)
# T1 sequence (P35354 1-604): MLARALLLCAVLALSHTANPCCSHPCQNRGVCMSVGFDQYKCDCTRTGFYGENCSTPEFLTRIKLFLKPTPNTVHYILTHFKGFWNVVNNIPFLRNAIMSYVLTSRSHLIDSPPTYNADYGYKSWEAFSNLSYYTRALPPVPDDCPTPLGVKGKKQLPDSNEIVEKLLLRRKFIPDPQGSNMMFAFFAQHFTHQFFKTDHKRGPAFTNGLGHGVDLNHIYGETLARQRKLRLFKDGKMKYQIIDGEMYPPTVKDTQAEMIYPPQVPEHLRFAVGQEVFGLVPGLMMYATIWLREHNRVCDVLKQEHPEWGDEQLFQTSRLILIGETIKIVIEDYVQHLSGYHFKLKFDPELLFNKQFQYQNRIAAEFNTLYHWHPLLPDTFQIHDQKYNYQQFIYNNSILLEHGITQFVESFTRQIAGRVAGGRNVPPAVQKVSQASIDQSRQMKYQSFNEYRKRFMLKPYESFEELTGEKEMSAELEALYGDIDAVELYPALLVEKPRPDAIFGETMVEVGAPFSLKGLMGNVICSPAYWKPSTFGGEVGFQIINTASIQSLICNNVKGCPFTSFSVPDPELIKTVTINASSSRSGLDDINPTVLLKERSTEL
# Assay: LCMS-based COX2 enzymatic inhibition assay (PGE2 quantification)
# Type: biochemical
# Parameters: COX2 2 minutes pge2/pge2d4 area ratio Avg; other: 2 minutes; readout pge2/pge2d4 area ratio; average; COX2 2 minutes pge2/pge2d4 area ratio Avg; LLE; average LLE; COX2 2 minutes pge2 area (counts) Avg; readout pge2 area (counts); other: 2 min; "ovine COX2 (oCOX2), human recombinant COX2 (hCOX2)"
# Conditions: for COX2 2 minutes pge2/pge2d4 area ratio Avg. LLE / COX2 2 minutes pge2 area (counts) Avg. LLE / COX2 10 minutes pge2 area (counts) Avg. LLE: average LLE; for IC50: average
# In short: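 PGE2 formed from arachidonic acid (final 5 μM, 2 min) was measured by LC-MS-MS against DMSO controls. Enzyme (oCOX-1 0.1 μg or hCOX2 0.2 μg) with hematin/epinephrine cofactors at pH 8.0 was given 10 min at 37 °C with compound first. Twelve-point curves run three times gave IC50.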
# [1] = 2 minutes, readout pge2/pge2d4 area ratio
# [2] = 2 minutes, readout pge2/pge2d4 area ratio, read-out: COX2 2 minutes pge2/pge2d4 area ratio Avg. IC50
# [3] = 2 minutes, readout pge2 area (counts)
# [4] = 2 minutes, readout pge2 area (counts), read-out: COX2 2 minutes pge2 area (counts) Avg. IC50
# [5] = 10 minutes, readout pge2 area (counts)
# [6] = 10 minutes, readout pge2 area (counts), read-out: COX2 10 minutes pge2 area (counts) Avg. IC50
SMILES,COX2 2 minutes pge2/pge2d4 area ratio Avg. LLE [1],IC50 [2] [nM],COX2 2 minutes pge2 area (counts) Avg. LLE [3],IC50 [4] [nM],COX2 10 minutes pge2 area (counts) Avg. LLE [5],IC50 [6] [nM]
COc1ncc(NCc2cccs2)cc1-c1ccc(S(C)(=O)=O)cc1 [Compound 196],2.588,887,2.528,1020,–,–
Cn1nccc1CNc1cccc(-c2ccc(S(C)(=O)=O)cc2)n1 [Compound 197],3.969,951,4.01,832,–,–
CS(=O)(=O)c1ccc(-c2cncc(NCc3cncs3)n2)cc1 [Compound 201],4.51,1010,4.612,832,–,–
CS(=O)(=O)c1ccc(-c2cncc(NCc3ccno3)n2)cc1 [Compound 202],5.815,1050,5.757,1190,–,–
CS(=O)(=O)c1ccc(-c2cncc(NCc3nccs3)n2)cc1 [Compound 203],4.216,1150,4.434,804,–,–
CS(=O)(=O)c1ccc(-c2cccc(C(=O)Cc3cccs3)n2)cc1 [Compound 206],2.741,1270,2.638,1590,–,–
CS(=O)(=O)c1ccc(-c2cncc(NCc3ccc(F)nc3)n2)cc1 [Compound 208],4.4967,1340,4.501,1310,5.151,357
CS(=O)(=O)c1ccc(-c2cncc(Oc3ccc(F)cc3)n2)cc1 [Compound 211],3.18,1430,3.779,1230,3.305,1640
CS(=O)(=O)c1ccc(-c2cncc(OCc3ccc(Cl)o3)n2)cc1 [Compound 212],2.9422,1470,2.889,1660,–,–
CO/N=C(/c1ccc2ccn(-c3ccc(S(C)(=O)=O)cc3)c2n1)c1cccs1 [Compound 214],–,1510,–,1190,–,–
CS(=O)(=O)c1ccc(-c2cccc(NCc3cnco3)n2)cc1 [Compound 216],3.544,1540,3.646,1220,–,–
CS(=O)(=O)c1ccc(-c2cncc(SCc3ncco3)n2)cc1 [Compound 217],3.66,1540,3.522,2240,–,–
CS(=O)(=O)c1ccc(-c2cc(NCc3cccs3)cnn2)cc1 [Compound 220],3.784,1670,3.69,2090,–,–
CS(=O)(=O)c1ccc(-c2cncc(NCc3ccc(F)cn3)n2)cc1 [Compound 221],4.887,1690,4.735,2690,4.836,1960
CS(=O)(=O)c1ccc(-c2cncc(/C=C/c3cccs3)n2)cc1 [Compound 223],2.992,1860,2.918,2240,–,–
CS(=O)(=O)c1ccc(-c2cncc(CCc3cccs3)n2)cc1 [Compound 225],3.328,2000,3.249,2400,–,–
COc1ncc(NCc2ccccn2)nc1-c1ccc(S(C)(=O)=O)cc1 [Compound 228],4.528,2120,4.5985,1800,–,–

# Other lines, results leading:
COX2 2 minutes pge2/pge2d4 area ratio Avg. LLE [1],IC50 [2] [nM],COX2 2 minutes pge2 area (counts) Avg. LLE [3],IC50 [4] [nM],COX2 10 minutes pge2 area (counts) Avg. LLE [5],IC50 [6] [nM],SMILES
2.819,1010,2.726,1380,–,–,CN(Cc1ccco1)c1cccc(-c2ccc(S(C)(=O)=O)cc2)n1 [Compound 200]
2.522,1160,2.252,2050,–,–,CS(=O)(=O)c1ccc(-c2ccc3c(n2)N(Cc2cccs2)C(=O)C3)cc1 [Compound 204]
3.07,1250,3.131,1060,–,–,CS(=O)(=O)c1ccc(-c2cccc([C@@H](O)Cc3cccs3)n2)cc1 [Compound 205]
3.8683,1320,3.915,1060,–,–,CC(=O)c1ncc(-c2ccc(S(C)(=O)=O)cc2)nc1NCc1cccs1 [Compound 207]
2.8514,1410,2.964,1170,3.939,112,CS(=O)(=O)c1ccc(-c2cnc3ncn(Cc4cccs4)c3n2)cc1 [Compound 210]
4.567,1500,4.663,1320,–,–,CS(=O)(=O)c1ccc(-c2cncc(SCc3cnoc3)n2)cc1 [Compound 213]
4.859,1530,4.845,1580,–,–,CS(=O)(=O)c1ccc(-c2cncc(NCc3cnco3)n2)cc1 [Compound 215]
4.686,1630,4.669,1690,–,–,CS(=O)(=O)c1ccc(-c2cnc(C(N)=O)c(NCc3cccs3)n2)cc1 [Compound 219]
4.828,1940,4.821,1840,–,–,CS(=O)(=O)c1ccc(-c2cncc(NC[C@@H]3CCCO3)n2)cc1 [Compound 224]
3.47,2040,3.565,1790,–,–,CS(=O)(=O)c1ccc(-c2cncc(SCc3cnco3)n2)cc1 [Compound 226]
4.384,2060,4.493,1600,–,–,COc1ncc(NCc2cnco2)nc1-c1ccc(S(C)(=O)=O)cc1 [Compound 227]
